Measurements as given in article PMC3804772, “Rational Design, Synthesis, and Biological Evaluation of Third Generation α-Noscapine Analogues as Potent Tubulin Binding Anti-Cancer Agents” (PLoS ONE, 2013).

What was measured:
[1] = system: human lymphoblast cell line (CEM); experiment: In vitro cell proliferation assay (SRB), CEM; format: cell-based; details: 72 h, mean ± S.D.
Procedure: (§1) The cell proliferation assay was performed in 96-well plates as described previously. A panel of four cancer cell lines of different tissues of origins, namely: human lung adenocarcinoma epithelial cell line (A549), human lymphoblast cell line (CEM), human cervix cell line (HeLa) and human breast epithelial cell line (MCF-7) were studied. These cell lines were obtained from the National Repository of Animal Cell Culture, National Centre for Cell Sciences, Pune (NCCS), India. Briefly, 2 x10^3 cells were seeded in each well and were incubated with gradient concentrations of 5a, 6a-j compounds for 72 h. The cells were then fixed with 50% trichloroacetic acid and stained with 0.4% sulforhodamine B (SRB) dissolved in 1% acetic acid. Cells were then washed with1% acetic acid to remove excess (unbound) SRB. The protein-bound SRB was dissolved with 10 mM Tris base and the absorbance at 564 nm was determined using a SPECTRAmax PLUS 384 microplate spectrophotometer.

MCF-7 cells = experiment: Cell cycle analysis by flow cytometry (propidium iodide); format: cell-based, human; details: MCF-7, 25 µM
Procedure: The flow cytometric evaluation of the cell cycle status was performed as described previously. Briefly, cells (2 x 10^6) treated with the noscapinoids up to 72 h were centrifuged, washed twice with cold PBS, and fixed in 70% ethanol. Tubes containing the cell pellets were stored at 4 °C for minimum of 24 h. Cells were then centrifuged at 1000 x g for 10 min and the supernatant was discarded. The pellets were washed twice with 5 ml of PBS and then stained with 0.5 ml of propidium iodide (0.1% of Pl + 0.6% Triton-X in PBS) and 0.5 ml of RNase A (2 mg/ml) for 45 minutes in dark. Samples were then analyzed on a FACS Calibur flow cytometer ([…]).

tubulin = biological target: T1, tubulin (Bos taurus, UniProt P81947+Q6B856); experiment: Tubulin binding assay (quenching of intrinsic tryptophan fluorescence); design: species or system bovine
T1 construct: Tubulin devoid of microtubule-associated proteins (MAPs) was purified from bovine brain; from tissue; host or cells: bovine brain
Procedure: Tubulin devoid of microtubule-associated proteins (MAPs) was purified from bovine brain by cycles of temperature-dependent polymerization and depolymerization as described previously followed by phosphocellulose chromatography. The concentration of the tubulin was determined by the method of Bradford using BSA as the standard. Purified tubulin was quickly frozen as drops in liquid nitrogen and stored at - 80 °C until used.
Noscapinoids quench the […] intrinsic tryptophan fluorescence of tubulin in a concentration-dependent fashion as described previously. This has allowed an easy method for measuring the tubulin-noscapinoids interactions. Briefly, the compounds 5a, 6a-j (0-200 µM) were incubated with 2 µM tubulin in PEM buffer (100 mM PIPES, pH 6.8, 3 mM MgSO4, and 1 mM EGTA) at 37 °C for 45 min. After incubation, the samples were excited at 295 nm. The relative intrinsic fluorescence intensity of the tubulin was then monitored in the absence and presence of the compound 5a, 6a-j using a Varian Cary Eclipse Fluorescence Spectrophotometer (Agilent Technologies, CA, USA). The emission readings were recorded at 335 nm. We used a 0.3 cm path-length cuvette to minimize the inner filter effects caused by the absorbance of the noscapinoids. In addition, the inner filter effects were corrected using a formula F corrected = F observed·antilog [(A ex + A em)/2], where A ex is the absorbance at the excitation wavelength and A em is the absorbance at the emission wavelength. The equilibrium dissociation constant (KD) was determined by the formula: 1/a = KD/[free ligand] + 1, where a is the fractional occupancy and [free ligand] is the concentration of free ligand. The fractional occupancy (a) was determined by the formula a = ΔF/ΔF max, where ΔF is the change in fluorescence intensity when tubulin and its ligand are in equilibrium and ΔF max is the value of maximum fluorescence change when tubulin is completely bound with its ligand. ΔF max was calculated by plotting 1/ΔF versus 1/ligand, using total ligand concentration as the first estimate of free ligand concentration. Three independent experiments were performed for each noscapinoid.

[2] = system: human lung adenocarcinoma epithelial cell line (A549); experiment: In vitro cell proliferation assay (SRB), A549; format: cell-based; details: 72 h, mean ± S.D.
Procedure: as §1

[3] = system: human breast epithelial cell line (MCF-7); experiment: In vitro cell proliferation assay (SRB), MCF-7; format: cell-based; details: MCF7, 72 h, mean ± S.D.
Procedure: as §1

[4] = system: human cervix cell line (HeLa); experiment: In vitro cell proliferation assay (SRB), HeLa; format: cell-based; details: 72 h, mean ± S.D.
Procedure: as §1

T1 sequence (Q6B856 whole entry): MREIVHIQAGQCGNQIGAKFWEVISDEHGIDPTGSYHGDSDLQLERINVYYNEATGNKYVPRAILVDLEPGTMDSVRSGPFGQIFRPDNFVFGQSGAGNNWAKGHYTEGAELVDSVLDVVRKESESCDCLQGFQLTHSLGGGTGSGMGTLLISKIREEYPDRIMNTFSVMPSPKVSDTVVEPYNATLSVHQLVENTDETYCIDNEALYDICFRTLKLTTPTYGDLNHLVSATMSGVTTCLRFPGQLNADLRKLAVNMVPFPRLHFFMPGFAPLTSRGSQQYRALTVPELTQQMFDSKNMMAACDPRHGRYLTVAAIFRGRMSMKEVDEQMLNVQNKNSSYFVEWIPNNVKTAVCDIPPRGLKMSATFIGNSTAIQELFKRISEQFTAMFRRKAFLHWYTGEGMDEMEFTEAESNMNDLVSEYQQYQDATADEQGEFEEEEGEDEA
T1 sequence (P81947 whole entry): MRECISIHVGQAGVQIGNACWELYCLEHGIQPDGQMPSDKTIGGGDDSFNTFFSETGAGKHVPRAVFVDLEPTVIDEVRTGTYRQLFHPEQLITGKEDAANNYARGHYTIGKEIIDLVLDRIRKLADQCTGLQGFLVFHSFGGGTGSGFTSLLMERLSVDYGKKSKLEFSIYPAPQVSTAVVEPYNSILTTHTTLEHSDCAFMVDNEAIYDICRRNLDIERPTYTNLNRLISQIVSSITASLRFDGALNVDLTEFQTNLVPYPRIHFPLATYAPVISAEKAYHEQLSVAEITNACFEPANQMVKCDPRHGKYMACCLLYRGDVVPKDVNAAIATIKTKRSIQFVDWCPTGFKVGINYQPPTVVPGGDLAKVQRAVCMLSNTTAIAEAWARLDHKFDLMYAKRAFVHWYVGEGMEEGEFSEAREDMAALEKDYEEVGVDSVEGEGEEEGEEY

Row | SMILES | IC50 [1] | Cell cycle parameters % G0/G1, 24 hours (MCF-7 cells) | Cell cycle parameters % G2/M, 24 hours (MCF-7 cells) | Cell cycle parameters % S, 24 hours (MCF-7 cells) | Cell cycle parameters % Sub-G1, 24 hours (MCF-7 cells) | Cell cycle parameters % G0/G1, 72 hours (MCF-7 cells) | Cell cycle parameters % G2/M, 72 hours (MCF-7 cells) | Cell cycle parameters % S, 72 hours (MCF-7 cells) | Cell cycle parameters % Sub-G1, 72 hours (MCF-7 cells) | Kd (tubulin; 2 µM tubulin, PEM buffer pH 6.8, 37 °C, 45 min, mean ± S.D.) | Experimental ΔGbind (tubulin; calculated from KD, ΔGbind = RT ln KD, T = 298 K) | IC50 [2] | IC50 [3] | IC50 [4] | melting point
1 | COc1ccc2c(c1OC)C(=O)O[C@@H]2[C@@H]1NCCc2cc3c(c(OC)c21)OCO3 [Compound 5a, (S)-6,7-dimethoxy-3-((R)-4-methoxy-5,6,7,8-tetrahydro[1,3]dioxolo[4,5-g]isoquinolin-5-yl)isobenzofuran-1(3H)-one] | 8.9 ± 0.6 µM | 13.47% | 66.37% | 4.08% | 8.46% | 10.74% | 39.25% | 7.08% | 41.57% | 68 ± 0.7 µM | -23.81 kJ/mol | 41.6 ± 2.1 µM | 33.6 ± 1.3 µM | 20.9 ± 1.8 µM | 
2 | COc1ccc2c(c1OC)C(=O)O[C@@H]2[C@H]1c2c(cc3c(c2OC)OCO3)CCN1Cc1ccc(Br)cc1 [Compound 6b, 5(S)-3-((R)-6-(4-bromobenzyl)-4-methoxy-5,6,7,8-tetrahydro-[1,3]dioxolo[4,5-g]isoquinolin-5-yl)-6,7-dimethoxyisobenzofuran-1(3H)-one] | 9 ± 0.4 µM | 19.42% | 64.42% | 4.16% | 7.37% | 11.38% | 35.84% | 7.53% | 43.18% |  |  | 42.4 ± 2.3 µM | 34.1 ± 1.6 µM | 21.2 ± 2.1 µM | 76 °C
3 | COc1ccc2c(c1OC)C(=O)O[C@@H]2[C@H]1c2c(cc3c(c2OC)OCO3)CCN1CC(C)=O [Compound 6h, (S)-6,7-dimethoxy-3-((R)-4-methoxy-6-(2-oxopropyl)-5,6,7,8-tetrahydro-[1,3]dioxolo[4,5-g]isoquinolin-5-yl) isobenzofuran-1(3H)-one] | 6.9 ± 0.5 µM | 12.25% | 68.58% | 5.92% | 11.37% | 7.19% | 36.18% | 6.28% | 48.73% |  |  | 28 ± 1.5 µM | 25.3 ± 1.2 µM | 15.8 ± 0.5 µM | 179 °C
4 | COc1cccc(CN2CCc3cc4c(c(OC)c3[C@@H]2[C@H]2OC(=O)c3c2ccc(OC)c3OC)OCO4)c1 [Compound 6g, (S)-6,7-dimethoxy-3-((R)-4-methoxy-6-(3-methoxybenzyl)-5,6,7,8-tetrahydro-[1,3]dioxolo[4,5-g]isoquinolin-5-yl) isobenzofuran-1(3H)-one] | 11.9 ± 0.8 µM | 20.94% | 62.28% | 4.08% | 10.86% | 12.76% | 37.93% | 8.07% | 40.29% |  |  | 61.3 ± 3.1 µM | 45.8 ± 2.2 µM | 28.3 ± 2.1 µM | 60 °C
5 | COc1ccc2c(c1OC)C(=O)O[C@@H]2[C@H]1c2c(cc3c(c2OC)OCO3)CCN1Cc1ccccc1 [Compound 6a, (S)-3-((R)-6-benzyl-4-methoxy-5,6,7,8-tetrahydro-[1,3]dioxolo[4,5-g]isoquinolin-5-yl)-6,7-dimethoxyisobenzofuran-1(3H)-one] | 8.3 ± 0.4 µM | 16.28% | 63.18% | 4.94% | 8.12% | 9.06% | 37.72% | 7.39% | 44.82% |  |  | 37.7 ± 1.8 µM | 31.2 ± 1.5 µM | 19.4 ± 1.4 µM | 64 °C
6 | COc1ccc(CN2CCc3cc4c(c(OC)c3[C@@H]2[C@H]2OC(=O)c3c2ccc(OC)c3OC)OCO4)cc1 [Compound 6d, (S)-6,7-dimethoxy-3-((R)-4-methoxy-6-(4-methoxybenzyl)-5,6,7,8-tetrahydro[1,3]dioxolo[4,5-g]isoquinolin-5-yl)isobenzofuran-1(3H)-one] | 7.7 ± 0.3 µM | 22.73% | 59.41% | 4.62% | 7.27% | 8.29% | 36.18% | 7.83% | 45.38% |  |  | 33.5 ± 1.7 µM | 28.7 ± 0.8 µM | 17.9 ± 0.9 µM | 66 °C
7 | COc1ccc2c(c1OC)C(=O)O[C@@H]2[C@H]1c2c(cc3c(c2OC)OCO3)CCN1Cc1cccc(Cl)c1 [Compound 6e, (S)-3-((R)-6-(3-chlorobenzyl)-4-methoxy-5,6,7,8-tetrahydro-[1,3]dioxolo[4,5-g]isoquinolin-5-yl)-6,7-dimethoxyisobenzofuran-1(3H)-one] | 7.5 ± 0.6 µM | 12.84% | 68.42% | 4.57% | 8.17% | 7.02% | 38.52% | 6.83% | 45.42% |  |  | 32.1 ± 1.6 µM | 27.8 ± 1.3 µM | 17.3 ± 0.7 µM | 62 °C
